One experiment deals with T1, PKCα (Homo sapiens, UniProt P17252).
T1 construct: His6; purchased Millipore; host or cells: baculovirus in Sf21 cells
The experiment can be described thus: In vitro enzyme assay (time-resolved fluorescence kinase assay), PKCα, 100 μM ATP. The format is biochemical. The note with it: 100 μM ATP; read-out: PKCα enzyme IC50. As for the experimental part: (§1) PKC kinase activity was assayed by time-resolved fluorescence in vitro kinase assay. Unless otherwise indicated, all reagents used for enzyme assays were obtained from Sigma. Specifically, 5 μL N- or C-terminal His6-tagged, recombinant, human PKC, expressed by baculovirus in Sf21 cells (Millipore) was mixed with 5 μL inhibitor (various concentrations, 5% final DMSO), 5 μL Bio-cdc peptide (Biotin-Ahx-[…], 2 μM final concentration, New England Peptide) and 5 μL of ATP (100 μM or 1000 μM final concentration) in 1× reaction buffer, 20 μL final volume.
(§2) Following a sixty minute incubation at room temperature, the reaction was quenched with 5 μL of 0.5 M EDTA pH 7.5.
(§3) Background counts from a minus enzyme control is subtracted from all data. Data (after background correction) are converted to percent activity by dividing by the signal obtained from PKC without drug sample.

Experiment [1] relates to CD3/CD28 induced IL-2 in human T-Blasts. The experiment can be described thus: T-Blasts CD3/CD28 induced IL-2 assay. Format: cell-based. The settings on record: read-out: CD3/CD28-stimulated IL2 in T-blasts EC50. As for the experimental part:
T-Blasts CD3/CD28 Induced IL-2 Assay
Human T-Blasts are generated using PHA following standard protocols. T-Blasts are freeze aliquoted and vials thawed as required. […] Seed 2×10^5/100 μL cell suspension per well in flat bottomed 96 well plate. Compound dilutions are prepared from 100% DMSO stocks. A total of 8 serial dilutions are made (1/3 in 100% DMSO). Compounds are diluted 1/50 in growth medium to prepare 4× stocks of each tested concentration. 50 μL from each 4× stock concentration is added to the 100 μL cell suspension and incubated for 30 minutes prior stimulus addition. A 4× stimulus stock is prepared using anti-CD3+anti-CD28 antibodies. Antibody mix is added to the cell/compounds suspension in 50 μL at 5 μg/mL final concentration. Compounds are tested in duplicates. Plates are transferred to 37° C./CO2 incubator for 24 hours. After incubation 130 μL of supernatant is collected for IL-2 determination while MTT toxicity analysis is performed on remaining cells/medium.

For a further experiment, the target named is T2, PKCθ (Homo sapiens, UniProt Q04759).
T2 construct: His6; purchased Millipore; host or cells: baculovirus in Sf21 cells
T2 sequence (Q04759 whole entry): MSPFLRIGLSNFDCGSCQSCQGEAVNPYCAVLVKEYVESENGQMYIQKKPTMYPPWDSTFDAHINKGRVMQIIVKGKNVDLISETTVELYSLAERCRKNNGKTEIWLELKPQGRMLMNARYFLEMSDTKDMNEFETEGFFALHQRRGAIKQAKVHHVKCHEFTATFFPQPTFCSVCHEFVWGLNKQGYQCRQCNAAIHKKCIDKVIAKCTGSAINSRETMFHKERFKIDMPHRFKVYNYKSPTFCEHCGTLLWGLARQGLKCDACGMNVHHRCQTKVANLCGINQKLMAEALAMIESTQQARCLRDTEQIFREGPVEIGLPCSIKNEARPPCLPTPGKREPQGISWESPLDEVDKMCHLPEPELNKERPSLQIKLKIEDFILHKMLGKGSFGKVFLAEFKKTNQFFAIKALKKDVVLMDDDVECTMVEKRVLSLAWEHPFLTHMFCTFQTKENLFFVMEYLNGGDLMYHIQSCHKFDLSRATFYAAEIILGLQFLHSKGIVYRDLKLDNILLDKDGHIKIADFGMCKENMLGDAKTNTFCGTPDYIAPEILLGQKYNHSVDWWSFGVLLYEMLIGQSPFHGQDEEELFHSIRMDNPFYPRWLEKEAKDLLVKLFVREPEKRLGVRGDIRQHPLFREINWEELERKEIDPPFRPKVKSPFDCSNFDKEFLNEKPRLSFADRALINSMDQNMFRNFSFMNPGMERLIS
The experiment can be described thus: In vitro enzyme assay (time-resolved fluorescence kinase assay), PKCθ, 100 μM ATP. The format is biochemical. Here is the method:
as §1, §2, §3

SMILES strings stand for the structures.

Turning to `C[C@@H]1C(=O)NN=C2COc3cc(-c4ccccc4F)c(N(C)C4(C)CN(CCC(F)(F)F)C4)cc3N21` [Example 193], the IC50 on PKCα was 1000 to 10000 nM; against PKCθ it was below 250 nM. In addition, in experiment [1], the EC50 was in the range of 250 to 1000 nM.

For the compound `COc1ccc2cc(-c3cc4c(cc3NC3CNC3)N3C(=NNC(=O)C3C)CO4)ccc2c1` (racemic) [Example 35], the IC50 on PKCα is 1000 to 10000 nM; at PKCθ it was below 250 nM. Besides, in experiment [1], the EC50 is below 250 nM.

As to `C[C@@H]1C(=O)NN=C2COc3cc(-c4cccc5ccccc45)c(NC4CNC4)cc3N21` [Example 10], the IC50 on PKCα is 1000 to 10000 nM; against PKCθ it was below 250 nM. Further, the EC50 in experiment [1] is below 250 nM.

As for `C[C@@H]1C(=O)NN=C2COc3cc(-c4ccccc4F)c([C@@H](C)C4(C)CN(CC5COC5)C4)cc3N21` [Example 144], the IC50 was 1000 to 10000 nM at PKCα and below 250 nM on PKCθ. For the same compound, the EC50 in experiment [1] lay in the range of 250 to 1000 nM.

For `C[C@@H]1C(=O)NN=C2COc3cc(-c4ccccc4F)c(N(C)C4(C)CN(C(=O)CCN(C)C)C4)cc3N21` [Example 185], the 50% inhibitory concentration (IC50) is 250 to 1000 nM at PKCα and below 250 nM against PKCθ. The EC50 in experiment [1] is below 250 nM.

Regarding `Cc1ccccc1-c1cc2c(cc1NC1CNC1)N1C(=NNC(=O)C1C)CO2` (racemic) [Example 48], the IC50 was 1000 to 10000 nM on PKCα and below 250 nM at PKCθ. Also, the EC50 in experiment [1] was below 250 nM.

Take `CC1C(=O)NN=C2COc3ccc(CC4CNC4)cc3N21` (stereo not drawn) [Example 78, 6-Azetidin-3-ylmethyl-4-methyl-2,10-dihydro-9-oxa-1,2,4a-triaza-phenanthren-3-one trifluoroacetic acid]: the values for the IC50 on PKCα and against PKCθ were 1000 to 10000 nM and below 250 nM, respectively. Moreover, in experiment [1], the EC50 was below 250 nM.

With `CC1C(=O)NN=C2CCc3ccc(NC4CNC4)cc3N21` (stereo not drawn) [Example 108, 9-(Azetidin-3-ylamino)-1-methyl-5,6-dihydro-1H-[1,2,4]triazino[4,3-a]quinolin-2(3H)-one hydrochloric acid], the IC50 is 250 to 1000 nM on PKCα and below 250 nM against PKCθ. Further, in experiment [1], the EC50 was below 250 nM.

For `Cc1cc2c(cc1NC1CNC1)N1C(=NNC(=O)[C@@H]1C)CO2` (single isomer, unassigned) [Example 54-2, trifluoroacetic acid], the IC50 on PKCα was in the range of 1000 to 10000 nM; against PKCθ, 250 to 1000 nM. Also, in experiment [1], the EC50 fell in the range of 1000 to 10000 nM.

Consider `CC1C(=O)NN=C2COc3ccc(C4CCNCC4(C)C)cc3N21` (stereo not drawn) [Example 74], for which the IC50 on PKCα was 1000 to 10000 nM; against PKCθ, below 250 nM. The EC50 in experiment [1] fell in the range of 250 to 1000 nM.

Turning to `C[C@@H]1C(=O)NN=C2COc3cc(-c4c(F)cccc4N4CCNCC4)ccc3N21` [Example 130, (R)-7-(2-Fluoro-6-piperazin-1-yl-phenyl)-4-methyl-2,10-dihydro-9-oxa-1,2,4a-triaza-phenanthren-3-one trifluoroacetic acid], the figures for the half-maximal inhibitory concentration (IC50) on PKCα and against PKCθ were 1000 to 10000 nM and 250 to 1000 nM, respectively. In addition, the EC50 in experiment [1] is 250 to 1000 nM.

Take `C[C@@H]1C(=O)NN=C2COc3cc4c(cc3N21)N([C@@H]1CCNC1)CC4` [Example 153, (R)-1-Methyl-10-(R)-pyrrolidin-3-yl-3,5,9,10-tetrahydro-8H-6-oxa-3,4,10,11b-tetraaza-cyclopenta[b]phenanthren-2-one hydrochloric acid]: the IC50 at PKCα lay in the range of 1000 to 10000 nM; against PKCθ it was 250 to 1000 nM. Also, the EC50 in experiment [1] was 1000 to 10000 nM.

With `COc1ccccc1-c1cc2c(cc1NC1CNC1)N1C(=NNC(=O)C1C)CO2` (racemic) [Example 34], the IC50 at PKCα was 1000 to 10000 nM; against PKCθ, below 250 nM. In addition, the EC50 in experiment [1] is 250 to 1000 nM.

`C[C@@H]1C(=O)NN=C2COc3cc(-c4ccccc4Cl)c(C4CCNCC4)cc3N21` [Example 210]: the values for the half-maximal inhibitory concentration (IC50) on PKCα and against PKCθ were 1000 to 10000 nM and below 250 nM, respectively. In addition, in experiment [1], the EC50 is below 250 nM.

In the case of `C[C@@H]1C(=O)NN=C2COc3cc(-c4cccc(CO)c4)c(N(C)C4(C)CN(C)C4)cc3N21` [Example 179], the IC50 is 250 to 1000 nM at PKCα and below 250 nM at PKCθ. Also, the EC50 in experiment [1] is below 250 nM.

Regarding `C[C@@H]1C(=O)NN=C2COc3cc(-c4ccccc4F)c(N4[C@@H]5CC[C@H]4CN(C)C5)cc3N21` [Example 235], the IC50 was 250 to 1000 nM at PKCα and below 250 nM on PKCθ. Also, the EC50 in experiment [1] was in the range of 250 to 1000 nM.

Turning to `CC(C)c1cc2c(cc1OC1(C)CNC1)N1C(=NNC(=O)C1C)CO2` (stereo not drawn) [Example 82, 7-Isopropyl-4-methyl-6-(3-methyl-azetidin-3-yloxy)-2,10-dihydro-9-oxa-1,2,4a-triaza-phenanthren-3-one trifluoroacetic acid], the IC50 on PKCα is 250 to 1000 nM; against PKCθ it was below 250 nM. For the same compound, the EC50 in experiment [1] was below 250 nM.

With `CC1C(=O)NN=C2COc3cc(C4CC4)c(OC4CNC4)cc3N21` (stereo not drawn) [Example 65, 6-(Azetidin-3-yloxy)-7-cyclopropyl-4-methyl-2,10-dihydro-9-oxa-1,2,4a-triaza-phenanthren-3-one trifluoroacetic acid], the values for the 50% inhibitory concentration (IC50) at PKCα and on PKCθ were 1000 to 10000 nM and below 250 nM, respectively. The EC50 in experiment [1] was below 250 nM.

Take `C[C@@H]1C(=O)NN=C2COc3cc(-c4ccccc4F)c([C@@H]4CCCNCC4)cc3N21` [Example 218]: the IC50 is 1000 to 10000 nM at PKCα and below 250 nM against PKCθ. The EC50 in experiment [1] is 250 to 1000 nM.

Regarding `C[C@H]1C(=O)NN=C2COc3cc4ccn([C@@]5(C)CCNC5)c4cc3N21` [Example 162, (S)-1-Methyl-10-((S)-3-methyl-pyrrolidin-3-yl)-3,5-dihydro-10H-6-oxa-3,4,10,11b-tetraaza-cyclopenta[b]phenanthren-2-one], the IC50 on PKCα is 250 to 1000 nM; on PKCθ, below 250 nM. Moreover, in experiment [1], the EC50 is below 250 nM.

Take `CC1C(=O)NN=C2COc3cc(-c4ccccc4C(F)(F)F)c(NC4CNC4)cc3N21` (racemic) [Example 28]: the values for the IC50 at PKCα and against PKCθ were 1000 to 10000 nM and below 250 nM, respectively. Also, the EC50 in experiment [1] was below 250 nM.

On to `CC[C@@H]1CN(C)CCN1c1cc2c(cc1-c1ccccc1F)OCC1=NNC(=O)[C@@H](C)N12` [Example 233], for which the IC50 is 250 to 1000 nM on PKCα and below 250 nM at PKCθ. Moreover, in experiment [1], the EC50 is below 250 nM.

Consider `C[C@H]1C(=O)NN=C2COc3cc(-c4ccccc4)c(NC4CNC4)cc3N21` (single isomer, unassigned) [Example 1-2, trifluoroacetic acid], for which the IC50 fell in the range of 1000 to 10000 nM on PKCα and 250 to 1000 nM on PKCθ. For the same compound, the EC50 in experiment [1] lay within 1000 to 10000 nM.

As for `C[C@@H]1C(=O)NN=C2COc3cc4ccn([C@@]5(C)CCNC5)c4cc3N21` [Example 163, (R)-1-Methyl-10-((S)-3-methyl-pyrrolidin-3-yl)-3,5-dihydro-10H-6-oxa-3,4,10,11b-tetraaza-cyclopenta[b]phenanthren-2-one], the half-maximal inhibitory concentration (IC50) at PKCα and at PKCθ was below 250 nM throughout. Further, the EC50 in experiment [1] was below 250 nM.

On to `CC1C(=O)NN=C2COc3cc4ccn(C5CN(C)C5)c4cc3N21` (stereo not drawn) [compound 161], for which the IC50 was 1000 to 10000 nM on PKCα and below 250 nM at PKCθ. For the same compound, the EC50 in experiment [1] lay in the range of 250 to 1000 nM.

Regarding `C[C@@H]1C(=O)NN=C2COc3cc4ccn([C@]5(C)CCNC5)c4cc3N21` [Example 164, (R)-1-Methyl-10-((R)-3-methyl-pyrrolidin-3-yl)-3,5-dihydro-10H-6-oxa-3,4,10,11b-tetraaza-cyclopenta[b]phenanthren-2-one], the IC50 was 1000 to 10000 nM at PKCα and below 250 nM against PKCθ. Also, the EC50 in experiment [1] lay within 250 to 1000 nM.

With `C[C@@H]1C(=O)NN=C2COc3cc(-c4ccccc4C(C)(C)O)c([C@@H](C)C4(C)CN(C)C4)cc3N21` [Example 137, (R)-6-[(R)-1-(1,3-Dimethyl-azetidin-3-yl)-ethyl]-7-[2-(1-hydroxy-1-methyl-ethyl)-phenyl]-4-methyl-2,10-dihydro-9-oxa-1,2,4a-triaza-phenanthren-3-one], the IC50 at PKCα is 1000 to 10000 nM; on PKCθ, below 250 nM. Besides, the EC50 in experiment [1] is 250 to 1000 nM.

As for `CC1C(=O)NN=C2COc3cc(-c4ccoc4)c(N(C)C4(C)CN(C)C4)cc3N21` (stereo not drawn) [Example 173], the figures for the IC50 on PKCα and at PKCθ were 1000 to 10000 nM and below 250 nM, respectively. The EC50 in experiment [1] lay in the range of 250 to 1000 nM.

Regarding `CC1C(=O)NN=C2COc3cc(-c4ccc5scnc5c4)c(NC4CNC4)cc3N21` (racemic) [Example 37], the values for the IC50 at PKCα and on PKCθ were 1000 to 10000 nM and below 250 nM, respectively. The EC50 in experiment [1] is below 250 nM.

On to `CC1C(=O)NN=C2COc3cc(-c4cccc(COC(C)(C)C)c4)c(NC4CNC4)cc3N21` (racemic) [Example 40], for which the IC50 at PKCα fell in the range of 1000 to 10000 nM; on PKCθ it was 250 to 1000 nM. In addition, in experiment [1], the EC50 fell in the range of 250 to 1000 nM.

For `C[C@@H]1C(=O)NN=C2COc3cc([C@H](C)C(F)(F)F)c(NC4CNC4)cc3N21` [Example 62], the values for the IC50 at PKCα and against PKCθ were 1000 to 10000 nM and below 250 nM, respectively. Further, the EC50 in experiment [1] lay within 250 to 1000 nM.

The record behind these values is patent US9115151B2, “Substituted 2,10-dihydro-9-oxa-1,2,4A-triazaphenanthren-3-ones and uses thereof” (AbbVie Inc., priority 2012, dated 2015).
